These results are taken from patent US20030159159A1, “Human nerve growth factor exon 1 and exon 3 promoters” (priority 1997, published 2003).

The subject of assay [1] is human nerve growth factor exon 1 promoter KE (pNE1KE) in L929 cells. In words: Luciferase assay, L929 stable cell lines with pNE1KE (human NGF exon 1 promoter KE). Type of assay: cell-based. Particulars: serum deprivation 48-56 hours, 18 hr treatment: serum 10% horse serum, PMA 1 μM, calcitriol 10 nM, mean ± SEM, 6 cell lines in duplicate, read-out: Fold induction over vehicle controls without serum (luciferase), L929 Mouse Exon 1 KE. The text has this:
(§1) DNA for the human nerve growth factor exon 1 clones was originally identified by PCR screening a human P1 genomic library (clone 1226-G9, Genome Systems). A ˜14,000 bp fragment containing exon 1 was cloned into a pBS SK+ vector to yield the plasmid identified as pBSEx1. Two overlapping fragments were isolated from the insert in pBSEx1 and subcloned into a pGL3neo vector. The largest construct containing human nerve growth factor exon 1 is 2846 bp and is identified as pNE1KS. The second subclone from pBSEx1, identified as pNE1KE, contains the same 5′ end as pNE1KS and is truncated on the 3′ end in exon 1, resulting in an insert that is 2234 bp. pNE1KS and pNE1KE were transfected into mouse L929 cells and human UC 11 cells to generate the data in Table 1. […]
(§2) Cells were plated at 5,000 cells/well in 96 well dishes in serum containing media described above. […] Cells were treated with 1 μM PMA, 10 nM calcitriol or 10% horse serum and luciferase activity was determined 18 hours later using a Promega kit (catalog #E1500). […] Luciferase activity was detected in a MicroLumat LB 96 P luminometer (Wallac Inc, Gaithersburg, Md.) for 10 seconds following automatic injection of 100 μl 470 μM luciferin.

In assay [2] the test system is human nerve growth factor exon 3 promoter (pGL3Ex3) in UC11 cells. In words: Luciferase assay, UC11 stable cell line with pGL3Ex3 (human NGF exon 3 promoter). Type of assay: cell-based. The settings on record: serum deprivation 48-56 hours, 18 hr treatment: serum 10% horse serum, PMA 1 μM, calcitriol 10 nM, mean ± SEM, 1 cell line n = 11-17, read-out: Fold induction over vehicle controls without serum (luciferase), UC11 Human Exon 3.
Excerpt: (§3) DNA for the human nerve growth factor exon 3 clones was originally identified by PCR screening a human P1 genomic library (clone 0095-B8, Genome Systems). A ˜6600 bp fragment containing exon 3 was cloned into a pBS SK+ vector to yield the plasmid identified as pBSEx3. A 4329 bp fragment was isolated from the insert in pBSEx3 and subcloned into a pGL2 enhancer vector (Promega) and a pGL3 basic vector (Promega) to yield clones identified as pGL2Ex3 and pGL3Ex3, respectively. The pGL2Ex3 was transfected into mouse L929 cells and the pGL3Ex3 vector was transfected into human UC11 cells to generate the data in Table 1.
UC11 human astrocytoma cells (Liwnicz, et. al. 1986) were grown in RPMI 1640 containing 10% fetal bovine serum, 20 mM HEPES, penicillin (50 μg/ml), streptomycin (50 μg/ml), neomycin (100 μg/ml), and glutamine (1 mM). Cells were maintained at 37° C. in 5% CO2, fed every 3-4 days and passaged once per week. […]
as §2

Assay [3] deals with human nerve growth factor exon 1 promoter KS (pNE1KS) in L929 cells. In words: Luciferase assay, L929 stable cell lines with pNE1KS (human NGF exon 1 promoter KS). The format is cell-based. Particulars: serum deprivation 48-56 hours, 18 hr treatment: serum 10% horse serum, PMA 1 μM, calcitriol 10 nM, mean ± SEM, 6 cell lines in duplicate, read-out: Fold induction over vehicle controls without serum (luciferase), L929 Mouse Exon 1 KS.
Excerpt: as §1, §2

Assay [4] deals with human nerve growth factor exon 3 promoter (pGL2Ex3) in L929 cells. Nature of the assay: Luciferase assay, L929 stable cell line with pGL2Ex3 (human NGF exon 3 promoter). The format is cell-based. Particulars: serum deprivation 48-56 hours, 18 hr treatment: serum 10% horse serum, PMA 1 μM, calcitriol 10 nM, mean ± SEM, 1 cell line n = 11-17, read-out: Fold induction over vehicle controls without serum (luciferase), L929 Mouse Exon 3.
Excerpt: as §3
L929 mouse fibroblast cells (ATCC, Rockville, Md.) were grown in Dulbecco's modified Eagle's medium (DMEM) containing 10% horse serum, penicillin (50 μg/ml), streptomycin (50 μg/ml), neomycin (100 μg/ml), and glutamine (1 mM). Cells were maintained at 37° C. in 5% CO2, fed every 3-4 days and passaged once per week. […]
as §2

Assay [5] concerns human nerve growth factor exon 1 promoter KS (pNE1KS) in UC11 cells. In words: Luciferase assay, UC11 stable cell lines with pNE1KS (human NGF exon 1 promoter KS). Particulars: serum deprivation 48-56 hours, 18 hr treatment: serum 10% horse serum, PMA 1 μM, calcitriol 10 nM, mean ± SEM, 6 cell lines in triplicate, read-out: Fold induction over vehicle controls without serum (luciferase), UC11 Human Exon 1 KS. Type of assay: cell-based.
Excerpt: as §1, §2

The test system of assay [6] is human nerve growth factor exon 1 promoter KE (pNE1KE) in UC11 cells. Nature of the assay: Luciferase assay, UC11 stable cell lines with pNE1KE (human NGF exon 1 promoter KE). Particulars: serum deprivation 48-56 hours, 18 hr treatment: serum 10% horse serum, PMA 1 μM, calcitriol 10 nM, mean ± SEM, 6 cell lines in triplicate, read-out: Fold induction over vehicle controls without serum (luciferase), UC11 Human Exon 1 KE. Type of assay: cell-based.
Excerpt: as §1, §2

Another assay concerns wild type cells. In words: G418 concentration curve on wild type cells. The format is cell-based. Particulars: in 13 days. On the procedure:
Since geneticin (G418) resistance would be used as a selection tool, a G418 concentration curve was done and it was determined that 600 μg/ml was the minimum concentration G418 necessary to kill all the wild type cells in 13 days.

Assay [7] deals with ROS 17/2.8 osteoblastic cells. Particulars: cited from earlier work.
A further assay concerns mouse L929 fibroblasts. The settings on record: cited from earlier work.
The subject of the next assay is primary glial cells. Particulars: cited from earlier work.

For `C=C1/C(=C\C=C2/CCC[C@]3(C)[C@@H]([C@H](C)CCCC(C)(C)O)CC[C@@H]23)C[C@@H](O)C[C@@H]1O` [CALCITRIOL, calcitriol], the fold induction at 0.01 µM in assay [1] is 0.71; in assay [2], 0.98; in assay [3], 0.67; in assay [4], 0.73; in [5] it was 0.86 ± 0.03; in [6] it was 1.01 ± 0.23.

`CN[C@@H]1[C@@H](O)[C@@H](O[C@@H]2[C@@H](O)[C@H](O[C@H]3O[C@H]([C@@H](C)O)[C@@H](O)[C@H](O)[C@H]3N)[C@@H](N)C[C@H]2N)OC[C@]1(C)O` [G418, geneticin]: in the assay with wild type cells, the “minimum concentration G418 necessary to kill all the wild type cells” value was 600 µg/mL.

With `CCCCCCCCCCCCCC(=O)O[C@@H]1[C@@H](C)[C@@]2(O)[C@@H](C=C(CO)C[C@]3(O)C(=O)C(C)=C[C@@H]23)[C@@H]2C(C)(C)[C@]12OC(C)=O` [PMA, phorbol 12-myristate 13-acetate], the “effect on NGF expression” value in assay [7] was “suppresses expression”. For the same molecule, the “effect on synthesis of NGF” value with mouse L929 fibroblasts and with primary glial cells was “enhances the synthesis of NGF” each time.
